Laboratory results: ChEMBL document CHEMBL5233274, “Current Landscape and Future Perspective of Oxazolidinone Scaffolds Containing Antibacterial Drugs” (J Med Chem, 2021)
≈ marks a conversion by molar mass, not a printed value.

How the values were obtained:
Format in all cases: functional
Staphylococcus aureus [1] = experiment: Antibacterial activity against methicillin-resistant Staphylococcus aureus WIS 441 infected in Galleria mellonella larvae incubated for 6 days; conditions: time 6 day
Streptococcus sp. [2] = experiment: Antibacterial activity against wild-type beta-hemolytic Streptococcus sp. by broth dilution assay
Streptococcus sp. [3] = experiment: Antibacterial activity against wild-type Streptococcus sp. by broth dilution assay
Streptococcus sp. [4] = experiment: Antibacterial activity against linezolid-resistant Streptococcus sp. by broth dilution assay
Staphylococcus aureus [5] = experiment: Antibacterial activity against Staphylococcus aureus assessed as fold increase relative to linezolid
Enterococcus = experiment: Antibacterial activity against Enterococcus assessed as fold increase relative to linezolid
Bacillus subtilis [6] = experiment: Antibacterial activity against Bacillus subtilis assessed as inhibition of bacterial growth measured per 100 uL incubated for 24 hrs by agar well diffusion method
Staphylococcus aureus [7] = experiment: Antibacterial activity against Staphylococcus aureus assessed as inhibition of bacterial growth measured per 100 uL incubated for 24 hrs by agar well diffusion method
Escherichia coli [8] = experiment: Antibacterial activity against Escherichia coli assessed as inhibition of bacterial growth measured per 100 uL incubated for 24 hrs by agar well diffusion method
Pseudomonas aeruginosa [9] = experiment: Antibacterial activity against Pseudomonas aeruginosa assessed as inhibition of bacterial growth measured per 100 uL incubated for 24 hrs by agar well diffusion method
Candida albicans [10] = experiment: Antifungal activity against Candida albicans assessed as inhibition of fungal growth incubated measured per 100 uL incubated for 24 hrs by agar well diffusion method
Saccharomyces cerevisiae = experiment: Antifungal activity against Saccharomyces cerevisiae assessed as inhibition of fungal growth incubated measured per 100 uL incubated for 24 hrs by agar well diffusion method
Escherichia coli [11] = experiment: Antibacterial activity against Escherichia coli assessed as zone of inhibition at 100 ug/ml; conditions: read-out: IZ
Escherichia coli [12] = experiment: Antibacterial activity against Escherichia coli assessed as inhibition of bacterial growth incubated for 18 hrs by CLSI protocol based method
Pseudomonas aeruginosa [13] = experiment: Antibacterial activity against Pseudomonas aeruginosa assessed as inhibition of bacterial growth incubated for 18 hrs by CLSI protocol based method
Staphylococcus aureus [14] = experiment: Antibacterial activity against Staphylococcus aureus NCIM 5257 assessed as inhibition of bacterial growth incubated for 24 hrs by serial broth dilution method
Bacillus subtilis [15] = experiment: Antibacterial activity against Bacillus subtilis NCIM 2097 assessed as inhibition of bacterial growth incubated for 24 hrs by serial broth dilution method
Enterococcus faecalis [16] = experiment: Antibacterial activity against Streptococcus faecalis NCIM 2080 assessed as inhibition of bacterial growth incubated for 24 hrs by serial dilution method
Escherichia coli [17] = experiment: Antibacterial activity against Escherichia coli NCIM 2065 assessed as inhibition of bacterial growth incubated for 24 hrs by serial dilution method
Klebsiella pneumoniae = experiment: Antibacterial activity against Klebsiella pneumoniae NCIM 5289 assessed as inhibition of bacterial growth incubated for 24 hrs by serial dilution method
Pseudomonas aeruginosa [18] = experiment: Antibacterial activity against Pseudomonas aeruginosa NCIM 5210 assessed as inhibition of bacterial growth incubated for 24 hrs by serial dilution method
Candida albicans [19] = experiment: Antifungal activity against Candida albicans NCIM 3628 assessed as inhibition of fungal growth incubated for 48 hrs by serial dilution method
Aspergillus niger = experiment: Antifungal activity against Aspergillus niger NCIM 1317 assessed as inhibition of fungal growth incubated for 48 hrs by serial dilution method
Listeria monocytogenes = experiment: Antibacterial activity against Listeria monocytogenes assessed as inhibition of bacterial growth by CLSI protocol based microdilution assay
Staphylococcus aureus [20] = experiment: Antibacterial activity against Staphylococcus aureus assessed as inhibition of bacterial growth by CLSI protocol based microdilution assay
Enterococcus faecalis [21] = experiment: Antibacterial activity against Enterococcus faecalis ATCC 51299 assessed as inhibition of bacterial growth by CLSI protocol based microdilution assay
Enterococcus faecalis [22] = experiment: Antibacterial activity against Enterococcus faecalis ATCC 29212 assessed as inhibition of bacterial growth by CLSI protocol based microdilution assay
Fusarium oxysporum = experiment: Antimicrobial activity against Fusarium oxysporum assessed as inhibition zone at 200 ug/ml incubated for 24 hrs by disk diffusion method; conditions: read-out: IZ
Bacillus subtilis [23] = experiment: Antibacterial activity against Bacillus subtilis assessed as zone of inhibition at 100 ug/ml; conditions: read-out: IZ
Pseudomonas aeruginosa [24] = experiment: Antibacterial activity against Pseudomonas aeruginosa assessed as inhibition of bacterial growth by CLSI protocol based microdilution assay

## Cn1nnc(-c2ccc(-c3ccc(N4C[C@H](CO)OC4=O)cc3F)cn2)n1 [TEDIZOLID]
Staphylococcus aureus [1]
  MED: 2 mg/L
Streptococcus sp. [2]
  MIC90: 0.25 µg/mL (≈ 0.675 µM)
Streptococcus sp. [3]
  MIC90: 0.25 µg/mL (≈ 0.675 µM)
Streptococcus sp. [4]
  MIC90: 8 µg/mL (≈ 21.6 µM)
Staphylococcus aureus [5]
  fold change (FC): 4
Enterococcus
  fold change (FC): 4

## O=C1NC(Cc2ccc(Nc3nc(-c4ccc(-c5ccccc5)cc4)cs3)cc2)CO1 (stereo not drawn)
Bacillus subtilis [6]
  MIC: 6.25 µg
Staphylococcus aureus [7]
  MIC: 6.25 µg
Escherichia coli [8]
  MIC: 12.5 µg
Pseudomonas aeruginosa [9]
  MIC: 12.5 µg
Candida albicans [10]
  MIC: 12.5 µg
Saccharomyces cerevisiae
  MIC: 12.5 µg

## CCCN1C(=O)C(N2C(=O)OCC2Cc2ccc(/N=C/c3ccccc3)cc2)C1c1ccc(Cl)cc1Cl (stereo not drawn)
Escherichia coli [11]
  zone of inhibition at 100 µg/mL: 24 mm

## CS(=O)(=O)CCOc1ccc(C#Cc2ccc(N3C[C@@H](C(=O)NO)OC3=O)cc2)cc1
Escherichia coli [12]
  MIC: 50 µg/mL (≈ 112 µM)
Pseudomonas aeruginosa [13]
  MIC: > 10 µg/mL

## O=C(NO)[C@@H]1CN(c2ccc(C#CC#CC3CCCC3)cc2)C(=O)O1
Escherichia coli [12]
  MIC: 0.015 µg/mL (≈ 0.0443 µM)
Pseudomonas aeruginosa [13]
  MIC: > 10 µg/mL

## O=C(/C=C/c1ccc(F)cc1)c1ccc(-c2ccc(N3C[C@H](CO)OC3=O)cc2)cc1
Staphylococcus aureus [14]
  MIC: 3.12 µg/mL (≈ 7.49 µM)
Bacillus subtilis [15]
  MIC: 3.12 µg/mL (≈ 7.49 µM)
Enterococcus faecalis [16]
  MIC: 3.12 µg/mL (≈ 7.49 µM)
Escherichia coli [17]
  MIC: 3.12 µg/mL (≈ 7.49 µM)
Klebsiella pneumoniae
  MIC: 3.12 µg/mL (≈ 7.49 µM)
Pseudomonas aeruginosa [18]
  MIC: 3.12 µg/mL (≈ 7.49 µM)
Candida albicans [19]
  MIC: 12.5 µg/mL (≈ 29.9 µM)
Aspergillus niger
  MIC: 12.5 µg/mL (≈ 29.9 µM)

## O=C1N[C@@H](Cc2ccc(NC(=S)Nc3ccc(Br)cc3)cc2)CO1
Listeria monocytogenes
  MIC: 25 µg/mL (≈ 61.5 µM)
Staphylococcus aureus [20]
  MIC: 25 µg/mL (≈ 61.5 µM)
Enterococcus faecalis [21]
  MIC: 25 µg/mL (≈ 61.5 µM)
Enterococcus faecalis [22]
  MIC: 25 µg/mL (≈ 61.5 µM)

## OC(Cn1cncn1)(Cn1cncn1)c1ccc(F)cc1F [FLUCONAZOLE]
Fusarium oxysporum
  zone of inhibition at 200 µg/mL: 23 mm

## O=C(/C=C/c1cccc(F)c1)c1ccc(-c2ccc(N3C[C@H](CO)OC3=O)cc2)cc1
Staphylococcus aureus [14]
  MIC: 3.12 µg/mL (≈ 7.49 µM)
Bacillus subtilis [15]
  MIC: 3.12 µg/mL (≈ 7.49 µM)
Enterococcus faecalis [16]
  MIC: 3.12 µg/mL (≈ 7.49 µM)
Escherichia coli [17]
  MIC: 3.12 µg/mL (≈ 7.49 µM)
Klebsiella pneumoniae
  MIC: 3.12 µg/mL (≈ 7.49 µM)
Pseudomonas aeruginosa [18]
  MIC: 3.12 µg/mL (≈ 7.49 µM)
Candida albicans [19]
  MIC: 12.5 µg/mL (≈ 29.9 µM)
Aspergillus niger
  MIC: 12.5 µg/mL (≈ 29.9 µM)

## O=C1NC(Cc2ccc(Nc3nc(-c4ccc([N+](=O)[O-])cc4)cs3)cc2)CO1 (stereo not drawn)
Bacillus subtilis [6]
  MIC: 6.25 µg
Staphylococcus aureus [7]
  MIC: 6.25 µg
Escherichia coli [8]
  MIC: 12.5 µg
Pseudomonas aeruginosa [9]
  MIC: 12.5 µg
Candida albicans [10]
  MIC: 12.5 µg
Saccharomyces cerevisiae
  MIC: 12.5 µg

## CNS(=O)(=O)c1ccc(C#CC#Cc2ccc(N3C[C@@H](C(=O)NO)OC3=O)cc2)cc1
Escherichia coli [12]
  MIC: 0.078 µg/mL (≈ 0.177 µM)
Pseudomonas aeruginosa [13]
  MIC: > 10 µg/mL

## O=C(NO)[C@@H]1CN(c2ccc(C#CC#Cc3ccccc3)cc2)C(=O)O1
Escherichia coli [12]
  MIC: 0.12 µg/mL (≈ 0.346 µM)
Pseudomonas aeruginosa [13]
  MIC: > 10 µg/mL

## O=C(NO)[C@@H]1CN(c2ccc(C#Cc3ccccc3)cc2)C(=O)O1
Escherichia coli [12]
  MIC: 0.625 µg/mL (≈ 1.94 µM)
Pseudomonas aeruginosa [13]
  MIC: > 10 µg/mL

## O=C(N[C@H](CO)[C@H](O)c1ccc([N+](=O)[O-])cc1)C(Cl)Cl [CHLORAMPHENICOL]
Escherichia coli [11]
  zone of inhibition at 100 µg/mL: 38 mm
Bacillus subtilis [23]
  zone of inhibition at 100 µg/mL: 37 mm
Pseudomonas aeruginosa [24]
  MIC: 50 µg/mL (≈ 155 µM)
Listeria monocytogenes
  MIC: 50 µg/mL (≈ 155 µM)
Staphylococcus aureus [20]
  MIC: 50 µg/mL (≈ 155 µM)
Enterococcus faecalis [21]
  MIC: 50 µg/mL (≈ 155 µM)
Enterococcus faecalis [22]
  MIC: 50 µg/mL (≈ 155 µM)

## COc1ccc(NC(=S)Nc2ccc(C[C@H]3COC(=O)N3)cc2)cc1
Pseudomonas aeruginosa [24]
  MIC: 50 µg/mL (≈ 140 µM)
